Columns and labels:
[1] = target: SARS-CoV-2 Main Protease (SARS-CoV-2) (UniProt P0DTD1)
[2] = target: SARS-CoV-2 Main Protease (SARS-CoV-2) (UniProt P0DTD1); remark: listed apart in the source

Compound	inhibition ([1]; 50.0 µM) [%]	inhibition ([2]; 20.0 µM) [%]	inhibition ([2]; 50.0 µM) [%]	IC50 [1] [nM]	inhibition ([1]; 20.0 µM) [%]	relative solubility at 20 uM	relative solubility at 100 uM	IC50 [2] [nM]
O=C(Oc1cncc(Cl)c1)c1cccc2[nH]ccc12	100	99.8	100					
Cc1cc(C)c(C#N)c(Sc2ncnc3c2nnn3Cc2ccccc2)n1		79	97.7	255				
O=C(Cc1cccc(Cl)c1)Nc1cccnc1	52.4	24.1	40.9					
O=C(NCCN1CCN(C(=O)CCl)CC1)c1cccc2ccccc12	23.8	6.97	4.69					
COc1cc(OC)cc(Oc2ccc(CNC(=O)Cn3nnc4ccccc43)cc2)c1	0	4.58	17.3					
CCOC(=O)c1cc(-c2ccccc2)sc1NC(=O)Cc1csc(-c2ccccc2)n1		91.8	97.9	2690				
N#Cc1cccc(CN2C(=O)C(=O)c3cccc(Br)c32)c1	91.2	-5.42	-2.38	17				
OC[C@@]1(F)CCN(c2nc(-c3cccnc3)nc3sc4c(c23)CCC4)C1 (stereo in doubt)	0	1.46	6.05					
O=S(=O)(Cc1ccccc1F)c1oc(-c2ccc(F)cc2)nc1S(=O)(=O)c1ccccc1		49	95.9	99.2				
O=[N+]([O-])c1cnc(Sc2nnc(-c3ccco3)n2-c2ccc(OCc3ccccc3)cc2)s1		31.8	94.4	660				
COc1ccccc1OCCN1C(=O)C(=O)c2cc(Br)cc(C)c21	48.1	-2.64	-0.707					
O=C(Nc1cccc(C(F)(F)F)c1)Nc1ccccc1Sc1ncc([N+](=O)[O-])s1		55.9	76.3	219				
N#CCCCOC(=O)c1cccc2c1NC(=O)C2=O	0	-3.65	-1.22					
O=C(Nc1nncn1C1CC1)C1CCS(=O)(=O)c2ccccc21 (configuration not stated)		37.6	74.6	26800				
C=CC(=O)N1CCN(S(C)(=O)=O)CC1c1ccccc1 (configuration not stated)	0	-0.438	2.89					
O=C(CCl)N1CCN(Cc2cnc(Cc3ccccc3)s2)CC1	97.6	41.5	51.6	34600				
O=C(Nc1ccc([N+](=O)[O-])cc1)c1cc(Cl)ccc1O	6	-7.24	-15.6		2.8			
Cc1ccn2c(-c3ccc4[nH]ncc4c3)c(-c3ccc(F)cc3)nc2c1	50.8	0.801	0.943					
COC(=O)c1cc(Br)cc2c1NC(=O)C2=O	61.7	-5.73	-5.38	42300				
C=CC(=O)N(C(CO)CC#CC)C(C(=O)NC(C)(C)C)c1cccnc1 (configuration not stated)	0	-4.06	-4.3					
CN1CCN(C(=O)CNc2c(S(N)(=O)=O)ccc3ccccc23)CC1	0	-0.961	0.321					

Compound	inhibition ([1]; 50.0 µM) [%]	inhibition ([2]; 20.0 µM) [%]	inhibition ([2]; 50.0 µM) [%]	IC50 [1] [nM]	inhibition ([1]; 20.0 µM) [%]	relative solubility at 20 uM	relative solubility at 100 uM	IC50 [2] [nM]
CNc1ccc(N(Cc2ccsc2)C(=O)Cn2nnc3ccccc32)cc1		57.1	82.6			0.99	0.77	
C=CC(=O)N(c1ccc(C(C)OC)cc1)C(C(=O)Nc1cccc(CC)c1)c1cccnc1 (configuration not stated)		36.6	63.7		4.44			
O=C(Cc1cc(Cl)cc(OC2CC(=O)N2)c1)Nc1cncc2ccccc12 (configuration not stated)				157				203
Cc1cc([C@H](C)C(=O)O)cc2[nH]c3ccc(Cl)cc3c12 (stereo in doubt)	9.04	0.304	3.37					
Cc1ccccc1NC(=O)CC1SC(=O)N(c2ccccc2)C1=O (configuration not stated)		92.6	94.9	658				
O=C(Cc1ccsc1)N1CCN(c2cc(-c3cccs3)n[nH]2)CC1		13.1	42.2	78200				
CC(C)Cn1cc(NC(=O)NC2=NN(c3ccccc3)CC2)c2ccccc2c1=O	-5.97	1.37	5.45					
CC(NC(=O)CCl)c1cc(F)cc(Cl)c1 (configuration not stated)	100	40.6	74.5	21000				
CNC(=O)c1cc(Cl)cc(CC(=O)Nc2cnccc2C)c1				43900				51500
O=C(CCl)N1CCN(Cc2cnc(-c3ccccc3)nc2)CC1	0	6.18	15.7					
Cc1ccc2nc(-c3ccc(N)cc3)sc2c1S(=O)(=O)O	0		21.2					
CCn1c(CSc2nc(C)c(C)n2CC2CCCO2)nc2cc(S(=O)(=O)N(C)C)ccc21 (configuration not stated)		-23.6	-3.59			0.85	0.84	
COc1ccccc1OCC(C)NC(=O)c1cc(=O)[nH]c2ccc(F)cc12 (configuration not stated)	40.1	42	59.3					
CSC1=C(C#N)C2(CCCCC2)C(C#N)=C(NC(=O)CCl)N1	97.5			1520				1140
O=c1oc(Nc2ccccc2)nc2ccccc12		68.6	90.4	363				
CC(C)Cn1cc(NC(=O)NCCCN2CCC(C)CC2)c2ccccc2c1=O		-1.82	-1.61	98200				
Cc1ccc(S(=O)(=O)N2CCC(NC(=O)N(C)Cc3cc(C)on3)CC2)cc1	0	-1.1	2.6					
O=C(CCl)N1CCN(S(=O)(=O)c2ccc(Cc3cccc4ccccc34)cc2)CC1	89	20.6	29.9	15200				
CC(C)(C)NC(=O)CN1C(=O)C(=O)c2cccc(Br)c21	0	-2.41	1.28					
Cc1ccc(OCCN2C(=O)C(=O)c3cccc(Cl)c32)cc1	77	0.316	5.65	2150				
C=CC(=O)N(c1ccc(C(F)(F)F)cc1)C(C(=O)NCCc1cccc(F)c1)c1cncc(O)c1 (configuration not stated)		26.8	44.9	17300				

From the COVID Moonshot data (paper PMC11187573), “Identification of SARS-CoV-2 Mpro inhibitors through deep reinforcement learning for de novo drug design and computational chemistry approaches” (RSC Medicinal Chemistry, 2024)
